In ChEMBL document CHEMBL1201862, “PubChem BioAssay data set” (2004):
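Dose response: 5 concentrations. Exposure: 48 h. Format: 96-well plates. Endpoint: linear interpolation; highest concentration if not reached. Here, GI50 denotes the concentration required for 50% inhibition of growth.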 Calls of active or inactive are those of the source. No stated cut-off is given here; in the data, active = GI50 up to about 1.1 µM and inactive = higher.

What was measured:
Test in all cases: DTP human tumour cell line panel, 48 h
[1] = system: SK-MEL-2
[2] = system: NCI-H522
[3] = system: RXF 631
[4] = system: 786-0
[5] = system: A498
[6] = system: M14
[7] = system: SK-OV-3
[8] = system: SNB-75
[9] = system: LOX IMVI
[10] = system: DLD-1
[11] = system: TK-10
[12] = system: OVCAR-8
[13] = system: KM-20L2
[14] = system: LXFL 529
[15] = system: CCRF-CEM
[16] = system: K562
[17] = system: OVCAR-5
[18] = system: Malme-3M
[19] = system: HT-29
[20] = system: SNB-78
[21] = system: HOP-92
[22] = system: HOP-18
[23] = system: MOLT-4
[24] = system: HL-60
[25] = system: CAKI-1
[26] = system: RPMI-8226
[27] = system: SF-539
[28] = system: EKVX
[29] = system: SNB-19
[30] = system: HCT-116
[31] = system: HOP-62
[32] = system: ACHN
[33] = system: SR
[34] = system: UO-31
[35] = system: COLO 205
[36] = system: M19-MEL
[37] = system: IGROV-1
[38] = system: SK-MEL-28
[39] = system: SF-295
[40] = system: KM12
[41] = system: SK-MEL-5
[42] = system: RXF 393
[43] = system: NCI-H226
[44] = system: DMS-114
[45] = system: A549
[46] = system: HCT-15
[47] = system: OVCAR-3
[48] = system: UACC-257
[49] = system: HCC 2998
[50] = system: U-251
[51] = system: XF498
[52] = system: SN12C
[53] = system: NCI-H460
[54] = system: NCI-H23
[55] = system: SF-268
[56] = system: UACC-62

CN(C)CC/[N+]([O-])=C(/c1ccccc1)C12CC3CC(CC(C3)C1)C2
GI50 [1]: 18.2 µM (inactive)
GI50 [2]: 15.1 µM (inactive)
GI50 [3]: 14 µM (inactive)
GI50 [4]: 13.5 µM (inactive)
GI50 [5]: 18.3 µM (inactive)
GI50 [6]: 13.4 µM (inactive)
GI50 [7]: 17.1 µM (inactive)
GI50 [8]: 11.9 µM (inactive)
GI50 [9]: 15.3 µM (inactive)
GI50 [10]: 16.1 µM (inactive)
GI50 [11]: 16.7 µM (inactive)
GI50 [12]: 17.9 µM (inactive)
GI50 [13]: 11.5 µM (inactive)
GI50 [14]: 24 µM (inactive)
GI50 [15]: 15.8 µM (inactive)
GI50 [16]: 15.1 µM (inactive)
GI50 [17]: 17.7 µM (inactive)
GI50 [18]: 39.7 µM (inactive)
GI50 [19]: 11 µM (inactive)
GI50 [20]: 19 µM (inactive)
GI50 [21]: 14.1 µM (inactive)
GI50 [22]: 20.9 µM (inactive)
GI50 [23]: 16.7 µM (inactive)
GI50 [24]: 11.8 µM (inactive)
GI50 [25]: 17 µM (inactive)
GI50 [26]: 17.7 µM (inactive)
GI50 [27]: 16.5 µM (inactive)
GI50 [28]: 21 µM (inactive)
GI50 [29]: 18.2 µM (inactive)
GI50 [30]: 17.9 µM (inactive)
GI50 [31]: 14.8 µM (inactive)
GI50 [32]: 16.3 µM (inactive)
GI50 [33]: 16.2 µM (inactive)
GI50 [34]: 11.9 µM (inactive)
GI50 [35]: 14 µM (inactive)
GI50 [36]: 13.8 µM (inactive)
GI50 [37]: 18.5 µM (inactive)
GI50 [38]: 16.2 µM (inactive)
GI50 [39]: 14 µM (inactive)
GI50 [40]: 18.3 µM (inactive)
GI50 [41]: 17.5 µM (inactive)
GI50 [42]: 18.2 µM (inactive)
GI50 [43]: 12.5 µM (inactive)
GI50 [44]: 20.2 µM (inactive)
GI50 [45]: 18.4 µM (inactive)
GI50 [46]: 19.1 µM
GI50 [47]: 14.7 µM (inactive)
GI50 [48]: 15.9 µM (inactive)
GI50 [49]: 22.2 µM (inactive)
GI50 [50]: 16 µM (inactive)
GI50 [51]: 13.2 µM (inactive)
GI50 [52]: 17.2 µM (inactive)
GI50 [53]: 18.4 µM (inactive)
GI50 [54]: 20.1 µM (inactive)
GI50 [55]: 20.9 µM (inactive)
GI50 [56]: 14 µM (inactive)
